Measured values as given in patent US8859235B2, “Methods in cell cultures, and related inventions, employing certain additives” (priority 2009, dated 2014).

Columns and labels:
P. pastoris = conditions: 4-10 mM in the medium; Xiao, Appl. Microbiol. Biotechnol. (2006); cited from earlier work
E. coli HM125 = assay: Growth and expression of FimH-CRD in E. coli HM125, shake flask cultivation in mineral medium; format: cell-based, Escherichia coli; conditions: for mg FimH/g cell: control 0.81; for FimH / Cell pellet: mean of triplicate; for FimH: control 6.48 ± 0.36; for Cell pellet: control 7.99 ± 0.25
Text: Standard molecular techniques are used for the cloning of the FimH carbohydrate recognition domain (FimH-CRD). The plasmid pfimHs-trc, encoding FimH lectin domain (1-156 amino acids M. Vetsch P et. al. 2002—J. Mol. Biol. 322: 827-840), is kindly provided by R. Glockshuber (ETH Zürich, Switzerland). The FimH-CRD fragment is amplified by polymerase chain reaction using specific forward primer containing the restriction site NdeI and a specific reverse primer containing the thrombin cleavage site and the restriction site XhoI, respectively. The insert is ligated into the corresponding cloning site in pET21b. The resulting contrast is named pET21b-FimH-CRD.
Precultures are prepared in 25 mL sterile LB medium [Tryptone (10.0 g/L), yeast extract (5.0 g/L), NaCl (10.0 g/L), ampicillin 100 (mg/L); adjusted to pH 7.0 with NaOH]. Cultures are inoculated with a glycerol stock stored at −80° C. of the protease deficient strain E. coli HM125 (Meerman H J & Georgiou G. 1994. Biotechnology (NY) 2, 1107-1110) harboring the plasmid pET21b-FimH-CRD Vector. Precultures are incubated at 37° C. for 10-12 h. Experimental cultures are performed in a volume of 500 mL of modified M9 medium [Na2HPO4×7H2O (12.8 g/L), KH2PO4 (3 g/L), NaCl (0.5 g/L), NH4Cl (1 g/L), D-glucose (4 g/L), MgSO4 (0.12 g/L), CaCl2 (0.01 g/L) and vitamins (in mg/L): riboflavin (0.1), choline chloride (1), folic Acid (1), niacinamide (1), p-amino benzoic acid (1), pyridoxal-HCl (1), thiamine-HCl (1), myo-lnositol (2)] supplemented with 100 mg/L ampicillin. Cultures are inoculated with 5 mL of the preoculture and grown at 30° C. and 150 rpm) until the optical density at 600 nm (0D600) reached 0.8-1.0. Then 1 mM IPTG and the stabilizer(s) (obligatory additive) according to the invention are added to final concentrations of 5, 10 and 20 mM as indicated from sterile stock solutions and the cultures are grown overnight. Then the cells are cooled on ice for 5 min and harvested by centrifugation at 5′000 rpm for 20 min at 4° C. Cell are harvested by centrifugation and biomass is quantified by weighing the wet cell pellets. The pellet is suspended in a cold solution of 50 mM Tris-HCl, pH 7.5, 150 mM NaCl, 5 mM EDTA, 1 mg/mL polymyxin B sulfate and stirred for two hours at 4° C. After centrifugation at 11′000 rpm for 20 min at 4° C., the supernatant (periplasmic extract) is dialyzed overnight against 50 mM NaH2PO4, 300 mM NaCl and 10 mM imidazole, pH 8 (binding buffer) and applied to a Ni-NTA column (Sigma, Buchs, Switzerland) attached to a BioLogic fast protein liquid chromatography system (BioRad, Reinach BL, Switzerland). The column is washed with binding buffer and afterwards eluted with 50 mM NaH2PO4, 300 mM NaCl and 250 mM imidazole, pH 8 (elution buffer). Fractions containing FimH-CRD-Th-6H is are pooled and dialyzed against water and then against 20 mM HEPES, 150 mM NaCl and 1 mM CaCl2, pH 7.4.
The concentration of protein is determined by HPLC method (Agilent 1100/1200 series) using BSA as standard (Sigma). The column Poros R1/10 10 μm (100×2 mm, Morvay Analytik) is kept at 60° C.; eluents are A: 0.1% trifluoroacetic acid (TFA) in H2O and B: 90% MeCN+0.09% TFA. A gradient of 20% B to 90% B is run within 20 min at a flow rate of 0.2 mL/min. The detection is monitored at 210 nm. Results are compiled in the following tables 5 and 6.

human cancer cells = conditions: due to SAPK and p38 MAPK signal pathway modulation; US 2004/024025; cited from earlier work

| SMILES | Hirudin yield and quality (P. pastoris) | mg FimH/g cell (E. coli HM125; additive 5 mM) [mg FimH/g cell] | FimH (E. coli HM125; additive 5 mM) [mg/L] | Cell pellet (E. coli HM125; additive 5 mM) [g/L] | mg FimH/g cell (E. coli HM125; additive 10 mM) [mg FimH/g cell] | FimH (E. coli HM125; additive 10 mM) [mg/L] | Cell pellet (E. coli HM125; additive 10 mM) [g/L] | mg FimH/g cell (E. coli HM125; additive 20 mM) [mg FimH/g cell] | FimH (E. coli HM125; additive 20 mM) [mg/L] | Cell pellet (E. coli HM125; additive 20 mM) [g/L] | Apoptosis in human cancer cells (human cancer cells) |
| --- | --- | --- | --- | --- | --- | --- | --- | --- | --- | --- | --- |
| O=C1O[C@H]([C@@H](O)CO)C(O)=C1O [Ascorbic acid] | increased | – | – | – | – | – | – | – | – | – | – |
| CC1(C)CCCC(C)(C)N1[O] [TEMPO, 2,2,6,6-Tetramethyl-1-piperidinyloxy radical, reference compound] | – | 1.14 | 8.85 ± 0.21 | 7.78 ± 0.45 | 1.15 | 8.61 ± 0.14 | 7.44 ± 0.32 | 1.26 | 8.26 ± 0.54 | 6.54 ± 0.2 | increased apoptosis |
